In ChEMBL document CHEMBL4368864, “The transition to magic bullets - transition state analogue drug design” (Medchemcomm, 2018):

Tests used:
[1] = molecular target: T1, Purine nucleoside phosphorylase (Bos taurus, UniProt P55859); test: Inhibition of bovine spleen PNP using inosine as substrate by xanthine oxidase coupled assay
T1 sequence (P55859 whole entry): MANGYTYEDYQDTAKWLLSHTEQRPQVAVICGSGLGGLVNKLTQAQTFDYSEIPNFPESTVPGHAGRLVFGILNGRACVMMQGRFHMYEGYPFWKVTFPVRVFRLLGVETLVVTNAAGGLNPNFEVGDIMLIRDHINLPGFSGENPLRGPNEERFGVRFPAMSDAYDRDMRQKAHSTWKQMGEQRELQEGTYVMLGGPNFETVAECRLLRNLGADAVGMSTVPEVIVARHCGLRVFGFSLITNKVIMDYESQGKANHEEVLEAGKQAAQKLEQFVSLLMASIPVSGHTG

[2] = molecular target: T2, Purine nucleoside phosphorylase (Homo sapiens, UniProt P00491); test: Inhibition of human PNP using inosine as substrate by xanthine oxidase coupled assay
T2 sequence (P00491 whole entry): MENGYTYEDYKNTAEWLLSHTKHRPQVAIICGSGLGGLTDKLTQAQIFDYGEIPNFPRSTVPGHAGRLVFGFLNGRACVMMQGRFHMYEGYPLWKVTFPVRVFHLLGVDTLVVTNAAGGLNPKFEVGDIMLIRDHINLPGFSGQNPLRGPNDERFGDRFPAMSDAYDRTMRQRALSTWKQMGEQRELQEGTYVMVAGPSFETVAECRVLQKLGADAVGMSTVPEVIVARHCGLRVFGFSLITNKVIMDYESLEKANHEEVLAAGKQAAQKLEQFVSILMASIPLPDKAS

[3] = Inhibition of Crithidia fasciculata nucleoside hydrolase
[4] = molecular target: T2, Purine nucleoside phosphorylase; test: Inhibition of human PNP
[5] = Oral bioavailability in mouse; format: ADME, organism-based; details: in vivo

Which results are given for `Nc1ncnc2c([C@@H]3N[C@H](CO)[C@@H](O)[C@H]3O)c[nH]c12`?
Ki [1]: 2.6 µM; Ki [2]: 0.033 µM

For `OC[C@H]1N[C@@H](c2cnc[nH]2)[C@H](O)[C@@H]1O`, which Ki [3] is on record?
The Ki was 2.5 µM.

For `OC[C@H]1N[C@@H](c2ccccc2)[C@H](O)[C@@H]1O`, which Ki [3] is on record?
The Ki was 0.17 µM.

With `O=c1[nH]ccn2c([C@@H]3N[C@H](CO)[C@@H](O)[C@H]3O)cnc12` as the compound, how does the Ki [1] read?
The Ki was 422 µM.

For `Nc1nc2c(ncn2COCCO)c(=O)[nH]1` [ACYCLOVIR], which Ki [4] is on record?
The Ki was 91 µM.

Which bioavailability [5] does the source give for `O=c1[nH]cnc2c([C@@H]3N[C@H](CO)[C@@H](O)[C@H]3O)c[nH]c12` [FORODESINE] here?
Its bioavailability is 63%.

With `OC[C@H]1NC[C@H](O)[C@@H]1O` [IMINORIBITOL] as the compound, how does the Ki [3] read?
The Ki was 10 µM.

For `O=c1[nH]cnc2c1ncn2[C@@H]1O[C@H](CO)[C@@H](O)[C@H]1O` [INOSINE], which Ki [3] is on record?
The Ki was 380 µM.

Which Ki [4] does the source give for `Nc1nc2c(Cc3cccnc3)c[nH]c2c(=O)[nH]1` [PELDESINE] here?
Its Ki is 0.0135 µM.
